Common to all, as to assay: NCI-60 cell line screen, 48 h
For assay [1], the system named is 786-0.
Assay [2] has as its system CAKI-1.
The subject of assay [3] is CCRF-CEM.
Assay [4] relates to DMS-114.
The test system of assay [5] is DMS-273.
For assay [6], the system named is HCT-116.
The test system of assay [7] is M14.
The subject of assay [8] is Malme-3M.
In assay [9] the test system is OVCAR-4.
Assay [10] relates to SF-268.
Assay [11] has as its system SK-MEL-2.
Assay [12] concerns SNB-19.
Assay [13] relates to SNB-78.
Assay [14] concerns UACC-257.
In assay [15] the test system is UACC-62.
Assay [16] deals with XF498.
Assay [17] has as its system HCT-15.

Structures can show the parent of a compound that is named as a salt.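 These data come from cells grown in 96-well plates and exposed to compound for 48 hours at five concentrations. Here, GI50 denotes the concentration required for 50% inhibition of growth.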 Activity calls are given as the source filed them. No stated cut-off is given here; in the data, active = GI50 up to about 1.1 µM and inactive = higher. Some results are limits rather than exact numbers.

Take `OCC(CO)C1c2cccc3ccc4cccc1c4c23`: the GI50 in assay [1], in assay [2], in assay [3], in assay [4], in [5] and in [6] was > 100 µM (inactive) throughout. Further, the GI50 in assay [7], in assay [8], in assay [9], in assay [10], in [11] and in [12] was > 100 µM (inactive) each time. Further, the GI50 in assay [13], in [14], in [15] and in assay [16] was > 100 µM (inactive) each time.
On to `CC(/C=C/C(=O)c1sc(C(N)=S)nc1C)=C\c1ccccc1`, for which the GI50 in [1] is > 100 µM (inactive); in [2], 23.4 µM (inactive); in assay [3] it was 58.2 µM (inactive); in assay [4] it was 17 µM (inactive); in assay [5], 20 µM (inactive); in [6], > 10 µM (inactive). The GI50 in assay [17] was above 100 µM; in assay [7] it was > 100 µM (inactive); in assay [8], > 100 µM (inactive); in [9], > 100 µM (inactive); in assay [10], > 100 µM (inactive); in assay [11], > 100 µM (inactive). In addition, the GI50 is 15.1 µM (inactive) in assay [12]; > 100 µM (inactive) in [13]; > 100 µM (inactive) in assay [14]; > 100 µM (inactive) in assay [15]; > 100 µM (inactive) in [16].
Turning to `CN(C)c1ccc(/C=c2\sc3nnc(-c4ccco4)n3c2=O)cc1`, the GI50 in assay [1], in assay [2], in assay [3], in assay [4], in assay [5] and in [6] was > 100 µM (inactive) in each case. Moreover, the GI50 in [7], in assay [8], in assay [9], in [10], in assay [11] and in assay [12] was > 100 µM (inactive) each time. Moreover, the GI50 in assay [13] is > 100 µM (inactive); in [14] it was 16.7 µM (inactive); in assay [15] it was > 100 µM (inactive); in assay [16] it was > 100 µM (inactive).
As for `COc1cc2[nH]c3c(c2cc1OC)CCN[C@]31CC[C@]2(CC3c4c(cc(OC)c(O)c42)CCN3C)C[C@H]1OC` (some centres undefined), the GI50 in assay [1] is 15.7 µM (inactive); in [2], 34.4 µM (inactive); in assay [3], 10.8 µM (inactive); in assay [4], 17.3 µM (inactive); in assay [5], 2 µM (inactive); in assay [6], 15.6 µM (inactive). In addition, the GI50 in assay [17] was 18.8 µM; in assay [7], 15.7 µM (inactive); in assay [8], 21 µM (inactive); in [9], 23.8 µM (inactive); in assay [10], 25.5 µM (inactive); in assay [12] it was 34.8 µM (inactive). The GI50 was 29.1 µM (inactive) in assay [13], 19.9 µM (inactive) in [14], 25 µM (inactive) in [15] and 15.6 µM (inactive) in assay [16].
For the compound `Nc1nc(NCCO)c(N=O)c(=O)[nH]1`, the GI50 in assay [1], in [2], in [3], in assay [4], in assay [5] and in [6] was > 100 µM (inactive) each time. In addition, the GI50 is above 100 µM in assay [17]; > 100 µM (inactive) in [7]; > 100 µM (inactive) in [8]; > 100 µM (inactive) in [9]; > 100 µM (inactive) in assay [10]; > 100 µM (inactive) in assay [11]. In addition, the GI50 in [13], in assay [14], in assay [15] and in assay [16] was > 100 µM (inactive) throughout.
Turning to `COC(=O)OCC1OC(N2C(=O)NC(=O)C(I)C2N=[N+]=[N-])CC1OC(=O)OC` (centres undefined), the GI50 was > 100 µM (inactive) in assay [1]; > 100 µM (inactive) in assay [2]; > 100 µM (inactive) in assay [3]; > 100 µM (inactive) in assay [5]; > 100 µM (inactive) in assay [6]; above 100 µM in assay [17]. Also, the GI50 in [7], in [8], in assay [9], in assay [10], in assay [12] and in assay [13] was > 100 µM (inactive) each time. Further, the GI50 in assay [14], in [15] and in assay [16] was > 100 µM (inactive) each time.
As to `CC(C)CC12CC3CCC(CNC1=O)C32C` (centres undefined), the GI50 is > 100 µM (inactive) in [1]; > 100 µM (inactive) in assay [2]; 35.5 µM (inactive) in assay [3]; 78 µM (inactive) in [4]; > 100 µM (inactive) in [5]; 78.9 µM (inactive) in assay [6]. Also, the GI50 in [7], in [8], in assay [9], in [10], in assay [11] and in assay [12] was > 100 µM (inactive) each time. Further, the GI50 in [13], in assay [14], in assay [15] and in [16] was > 100 µM (inactive) each time.
On to `CC(C)(C)c1cc(C(O)(C(F)(F)F)C(F)(F)F)c2c(c1)C(C(F)(F)F)(C(F)(F)F)OC(C(C)(C)C)N2` (centres undefined), for which the GI50 in assay [1] is 3.24 µM (inactive); in assay [2], 3.12 µM (inactive); in [4], 1.12 µM (inactive); in [5], 2.18 µM (inactive); in [6] it was 1.96 µM (inactive); in [17], 2.99 µM. For the same compound, the GI50 in [7] was 5.13 µM (inactive); in assay [8] it was 5.31 µM (inactive); in [9], 6.28 µM (inactive); in assay [11] it was 2.55 µM (inactive); in assay [12], 5.79 µM (inactive); in [13], 2.75 µM (inactive). In addition, the results for the GI50 in assay [14], in assay [15] and in [16] were 2.81 µM (inactive), 3.56 µM (inactive) and < 0.01 µM (active), respectively.
As for `CC/C(=N\NS(=O)(=O)c1ccccc1)c1ccccc1`, the GI50 in [1] is > 100 µM (inactive); in assay [2] it was > 100 µM (inactive); in assay [3] it was > 100 µM (inactive); in assay [5] it was > 100 µM (inactive); in assay [6], > 100 µM (inactive); in assay [17] it was above 100 µM. For the same compound, the GI50 in assay [7], in assay [8], in assay [9], in [10], in assay [11] and in [13] was > 100 µM (inactive) in each case. For the same compound, the GI50 in assay [14], in assay [15] and in assay [16] was > 100 µM (inactive) throughout.
For the compound `O=C(Cc1c(C(=O)Nc2ccccc2)sc(C(=O)Nc2ccccc2)c1CC(=O)Nc1ccccc1)Nc1ccccc1`, the GI50 in assay [1], in assay [2], in assay [3], in assay [4], in assay [5] and in assay [6] was > 100 µM (inactive) in each case. For the same compound, the GI50 in assay [7] is > 100 µM (inactive); in assay [8], > 100 µM (inactive); in assay [9], > 100 µM (inactive); in assay [10], 0.446 µM (active); in assay [12] it was > 100 µM (inactive); in [13] it was > 100 µM (inactive). The GI50 in assay [14], in assay [15] and in [16] was > 100 µM (inactive) in each case.
Take `COC(=O)C1=CO[C@@H](C)[C@@H]2Cn3ccc4c5ccccc5nc-4c3C[C@H]12` [ALSTONINE HYDROCHLORIDE]: the GI50 in assay [1] is > 100 µM (inactive); in assay [3] it was > 100 µM (inactive); in assay [4], > 100 µM (inactive); in assay [5] it was > 100 µM (inactive); in [6], > 100 µM (inactive); in assay [17] it was above 100 µM. The GI50 in assay [7], in assay [8], in assay [9], in assay [10], in [11] and in assay [12] was > 100 µM (inactive) each time. Besides, the GI50 in [13] is > 100 µM (inactive); in assay [14] it was > 100 µM (inactive); in assay [15], > 100 µM (inactive); in [16], 49.5 µM (inactive).
In the case of `O=c1[nH]c(=O)n(C2CC(O)C(CO)O2)cc1C(F)(C(F)(F)F)C(F)(F)F` (centres undefined), the GI50 is > 100 µM (inactive) in [1]; > 100 µM (inactive) in [2]; > 100 µM (inactive) in assay [3]; > 100 µM (inactive) in [4]; > 100 µM (inactive) in assay [5]; above 100 µM in assay [17]. Also, the GI50 in [7], in assay [8], in [9], in [10], in assay [11] and in [12] was > 100 µM (inactive) in each case. The GI50 in assay [13], in assay [14], in [15] and in assay [16] was > 100 µM (inactive) throughout.
Turning to `Cn1c(=O)c2[nH]cnc2n(CC(=O)O)c1=O`, the GI50 in assay [1], in [2], in [3], in [4], in assay [5] and in assay [6] was > 100 µM (inactive) throughout. Besides, the GI50 in assay [17] is above 100 µM; in assay [7], > 100 µM (inactive); in assay [8], > 100 µM (inactive); in assay [10], > 100 µM (inactive); in assay [11], > 100 µM (inactive); in [12] it was > 100 µM (inactive). The GI50 in assay [13], in assay [15] and in assay [16] was > 100 µM (inactive) in each case.
